Assay results from patent US20140243414A1, “PHARMACEUTICAL COMPOSITIONS OF CETP INHIBITORS” (Japan Tobacco Inc., priority 2003, published 2014).
Read-outs that look alike come from different tables or passages of the source.

Experiments:
CETP = biological target: T1, CETP (Homo sapiens, UniProt P11597); assay: Relative CETP activity after single oral doses, Japanese males (Example 7); assay type: in vivo; details: for response vs control in vivo at 100 mg: 100 mg with food; for response vs control in vivo at 100 mg / response vs control in vivo at 300 mg / response vs control in vivo at 600 mg / response vs control in vivo at 900 mg / response vs control in vivo at 1200 mg / response vs control in vivo at 1500 mg / response vs control in vivo at 1800 mg: read-out: Percent CETP activity relative to pre-dose; for response vs control in vivo at 300 mg: 300 mg with food; for response vs control in vivo at 600 mg: 600 mg with food; for response vs control in vivo at 900 mg: 900 mg with food; for response vs control in vivo at 1200 mg: 1200 mg with food; for response vs control in vivo at 1500 mg: 1500 mg with food; for response vs control in vivo at 1800 mg: 1800 mg with food
T1 construct: from tissue; host or cells: blood / plasma of human subjects dosed orally with Compound I
T1 sequence (P11597 18-493): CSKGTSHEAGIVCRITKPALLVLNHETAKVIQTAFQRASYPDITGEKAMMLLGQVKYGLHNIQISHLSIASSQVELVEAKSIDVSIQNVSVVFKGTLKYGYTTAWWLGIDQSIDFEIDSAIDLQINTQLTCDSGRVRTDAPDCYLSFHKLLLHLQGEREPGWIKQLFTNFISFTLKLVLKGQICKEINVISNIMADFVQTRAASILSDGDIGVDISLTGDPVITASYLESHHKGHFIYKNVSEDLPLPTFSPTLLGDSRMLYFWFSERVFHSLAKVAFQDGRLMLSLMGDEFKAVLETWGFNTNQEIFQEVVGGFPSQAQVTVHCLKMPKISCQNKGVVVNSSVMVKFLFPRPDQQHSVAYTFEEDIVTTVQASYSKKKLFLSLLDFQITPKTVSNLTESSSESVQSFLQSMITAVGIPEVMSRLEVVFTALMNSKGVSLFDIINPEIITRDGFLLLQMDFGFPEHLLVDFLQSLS
Procedure: Administration, dosing, and sampling schedules were commensurate with those described in Example 1. The tablets were prepared as described in Example 1.
Relative CETP activities (calculated as a percentage of baseline CETP activity) and standard deviations (SD) were measured, and the resulting data is summarized in Table 8.

Solubility in water = assay type: physicochemical

## CCC(CC)CC1(C(=O)Nc2ccccc2SC(=O)C(C)C)CCCCC1 [Compound I, S-[2-([[1-(2-ethylbutyl)cyclohexyl]carbonyl]amino)phenyl]2-methylpropanethioate]
CETP; post-study
  response vs control in vivo at 100 mg: 99.2%
  response vs control in vivo at 300 mg: 96.1%
  response vs control in vivo at 600 mg: 103%
  response vs control in vivo at 900 mg: 95.1%
  response vs control in vivo at 1200 mg: 95.2%
  response vs control in vivo at 1500 mg: 96.9%
  response vs control in vivo at 1800 mg: 93%
CETP; 300 mg, 6 hours after administration
  Decrease in CETP activity relative to pre-dose: about 19.5%
CETP; 600 mg, 6 hours after administration
  Decrease in CETP activity relative to pre-dose: about 62%
CETP; 900 mg, 4 hours after administration
  Decrease in CETP activity relative to pre-dose: about 76%
CETP; 1 h, 1 h
  response vs control in vivo at 100 mg: 96.2%
  response vs control in vivo at 300 mg: 100%
  response vs control in vivo at 600 mg: 100%
  response vs control in vivo at 900 mg: 100%
  response vs control in vivo at 1200 mg: 94.2%
  response vs control in vivo at 1500 mg: 101%
  response vs control in vivo at 1800 mg: 85.3%
CETP; 2 h, 2 h
  response vs control in vivo at 100 mg: 92%
  response vs control in vivo at 300 mg: 90.7%
  response vs control in vivo at 600 mg: 87.8%
  response vs control in vivo at 900 mg: 52.1%
  response vs control in vivo at 1200 mg: 54%
  response vs control in vivo at 1500 mg: 85.7%
  response vs control in vivo at 1800 mg: 15.6%
CETP; 4 h, 4 h
  response vs control in vivo at 100 mg: 93.2%
  response vs control in vivo at 300 mg: 83.1%
  response vs control in vivo at 600 mg: 52.6%
  response vs control in vivo at 900 mg: ~24%
  response vs control in vivo at 1200 mg: 12.1%
  response vs control in vivo at 1500 mg: 13.3%
  response vs control in vivo at 1800 mg: 6%
CETP; 6 h, 6 h
  response vs control in vivo at 100 mg: 90.4%
  response vs control in vivo at 300 mg: ~80.5%
  response vs control in vivo at 600 mg: ~38%
  response vs control in vivo at 900 mg: 24.1%
  response vs control in vivo at 1200 mg: 10.5%
  response vs control in vivo at 1500 mg: 10.6%
  response vs control in vivo at 1800 mg: 8.4%
CETP; 8 h, 8 h
  response vs control in vivo at 100 mg: 90.4%
  response vs control in vivo at 300 mg: 80.6%
  response vs control in vivo at 600 mg: 39.1%
  response vs control in vivo at 900 mg: 29.8%
  response vs control in vivo at 1200 mg: 14.7%
  response vs control in vivo at 1500 mg: 15.4%
  response vs control in vivo at 1800 mg: 12.2%
CETP; 24 h, 24 h
  response vs control in vivo at 100 mg: 99.2%
  response vs control in vivo at 300 mg: 88.8%
  response vs control in vivo at 600 mg: 65.5%
  response vs control in vivo at 900 mg: 60.5%
  response vs control in vivo at 1200 mg: 47.6%
  response vs control in vivo at 1500 mg: 53.7%
  response vs control in vivo at 1800 mg: 49.5%
Solubility in water
  solubility: < 0.1 µg/mL
